Results published in ChEMBL document CHEMBL4024707, “Using gene expression database to uncover biology functions of 1,4-disubstituted 1,2,3-triazole analogues synthesized via a copper (I)-catalyzed reaction” (Eur J Med Chem, 2017).
pIC50: −log10 of the molar value.

Experiments:
[1] = system: Hep 3B2; test: Cell cycle arrest in human Hep3B cells assessed as accumulation at S phase at 10 uM after 24 hrs by propidium iodide staining based flow cytometry (reference value: 22.6 to 27.1%); format: functional
[2] = system: Hep 3B2; test: Cell cycle arrest in human Hep3B cells assessed as accumulation at G0/G1 phase at 5 uM after 72 hrs by propidium iodide staining based flow cytometry (reference value: 41.6 to 46.2%); format: functional
[3] = system: Hep 3B2; test: Induction of autophagy in human Hep3B cells at 40 uM after 48 hrs by acridine orange staining based flow cytometry (reference value: 0.9 to 3%); format: functional
[4] = system: Hep 3B2; test: Cell cycle arrest in human Hep3B cells assessed as accumulation at S phase at 10 uM after 72 hrs by propidium iodide staining based flow cytometry (reference value: 16.4 to 21.1%); format: functional
[5] = system: Hep 3B2; test: Induction of autophagy in human Hep3B cells after 24 to 72 hrs by acridine orange staining based flow cytometry; format: functional, cell-based
[6] = system: Hep 3B2; test: Cell cycle arrest in human Hep3B cells assessed as accumulation at G2/M phase at 40 uM after 24 hrs by propidium iodide staining based flow cytometry (reference value: 31.8 to […]%); format: functional
[7] = system: Hep 3B2; test: Cell cycle arrest in human Hep3B cells assessed as accumulation at S phase at 2.5 uM after 24 hrs by propidium iodide staining based flow cytometry (reference value: 22.6 to 27.1%); format: functional
[8] = system: Hep 3B2; test: Cell cycle arrest in human Hep3B cells assessed as accumulation at S phase at 5 uM after 48 hrs by propidium iodide staining based flow cytometry (reference value: 20.8 to 24%); format: functional
[9] = system: Hep 3B2; test: Induction of autophagy in human Hep3B cells assessed as ratio of LC3-2 to beta actin level at 40 uM after 72 hrs in presence of curcumin by Western blot analysis
[10] = system: Hep 3B2; test: Induction of autophagy in human Hep3B cells at 10 uM after 72 hrs by acridine orange staining based flow cytometry (reference value: 1.1 to 4%); format: functional
[11] = system: Hep 3B2; test: Cell cycle arrest in human Hep3B cells assessed as accumulation at sub-G1 phase at 20 uM after 48 hrs by propidium iodide staining based flow cytometry (reference value: 1.5 to 6.5%); format: functional
[12] = system: Hep 3B2; test: Cell cycle arrest in human Hep3B cells assessed as accumulation at G0/G1 phase at 10 uM after 24 hrs by propidium iodide staining based flow cytometry (reference value: 36.3 to 39.0%); format: functional
[13] = system: Hep 3B2; test: Cell cycle arrest in human Hep3B cells assessed as accumulation at S phase at 10 uM after 48 hrs by propidium iodide staining based flow cytometry (reference value: 20.8 to 24%); format: functional
[14] = system: Hep 3B2; test: Cell cycle arrest in human Hep3B cells assessed as accumulation at G2/M phase at 10 uM after 72 hrs by propidium iodide staining based flow cytometry (reference value: 28.7 to 32.3%); format: functional
[15] = system: Hep 3B2; test: Cell cycle arrest in human Hep3B cells assessed as accumulation at G0/G1 phase at 5 uM after 24 hrs by propidium iodide staining based flow cytometry (reference value: 36.3 to 39.0%); format: functional
[16] = system: Hep 3B2; test: Cell cycle arrest in human Hep3B cells assessed as accumulation at G2/M phase at 40 uM after 72 hrs by propidium iodide staining based flow cytometry (reference value: 28.7 to 32.3%); format: functional
[17] = system: Hep 3B2; test: Cell cycle arrest in human Hep3B cells assessed as accumulation at S phase at 20 uM after 72 hrs by propidium iodide staining based flow cytometry (reference value: 16.4 to 21.1%); format: functional
[18] = system: Hep 3B2; test: Cell cycle arrest in human Hep3B cells assessed as accumulation at S phase at 40 uM after 24 hrs by propidium iodide staining based flow cytometry (reference value: 22.6 to 27.1%); format: functional
[19] = Growth inhibition of HUVEC at 50 uM after 24 hrs by MTT assay relative to control; format: cell-based; conditions: human, HUVEC cells; read-out: GI
[20] = Growth inhibition of HUVEC at 12.5 uM after 24 hrs by MTT assay relative to control; format: cell-based; conditions: human, HUVEC cells; read-out: GI
[21] = system: Hep 3B2; test: Cell cycle arrest in human Hep3B cells assessed as accumulation at sub-G1 phase at 2.5 to 20 uM by propidium iodide staining based flow cytometry; format: functional; conditions: TDE = time-dependent effect
[22] = system: Hep 3B2; test: Down regulation of FUT1 expression in human Hep3B cells at 1 uM after 6 to 24 hrs by L1000 expression profiling method relative to control; format: functional
[23] = system: Hep 3B2; test: Down regulation of PPP1R13B expression in human Hep3B cells at 1 uM after 6 to 24 hrs by L1000 expression profiling method relative to control; format: functional
[24] = system: Hep 3B2; test: Induction of autophagy in human Hep3B cells assessed as ratio of LC3-2 to beta-actin level at 10 uM after 48 hrs in presence of curcumin by Western blot analysis; format: functional
[25] = system: Hep 3B2; test: Cell cycle arrest in human Hep3B cells assessed as accumulation at S phase at 10 uM after 48 hrs in absence of curcumin by propidium iodide staining based flow cytometry (reference value: 23.8 +/- 1.9%); format: functional
[26] = system: Hep 3B2; test: Down regulation of SUPV3L1 expression in human Hep3B cells at 1 uM after 6 to 24 hrs by L1000 expression profiling method relative to control; format: functional
[27] = system: Hep 3B2; test: Cell cycle arrest in human Hep3B cells assessed as accumulation at sub-G1 phase at 10 uM after 48 hrs in presence of curcumin by propidium iodide staining based flow cytometry (reference value: 3.7 +/- 0.4%); format: functional
[28] = system: Hep 3B2; test: Cell cycle arrest in human Hep3B cells assessed as accumulation at G2/M phase at 10 uM after 48 hrs in presence of curcumin by propidium iodide staining based flow cytometry (reference value: 36.6 +/- 2.9%); format: functional
[29] = system: Hep 3B2; test: Down regulation of FZD1 expression in human Hep3B cells at 1 uM after 6 to 24 hrs by L1000 expression profiling method relative to control; format: functional
[30] = system: Hep 3B2; test: Growth inhibition of human Hep3B cells at 10 uM after 24 hrs by MTT assay relative to control; format: functional; conditions: read-out: GI
[31] = system: Hep 3B2; test: Down regulation of GRB7 expression in human Hep3B cells at 1 uM after 6 to 24 hrs by L1000 expression profiling method relative to control; format: functional
[32] = system: Hep 3B2; test: Cell cycle arrest in human Hep3B cells assessed as accumulation at G0/G1 phase at 10 uM after 48 hrs in absence of curcumin by propidium iodide staining based flow cytometry (reference value: […] +/- […]%); format: functional
[33] = system: Hep 3B2; test: Cell cycle arrest in human Hep3B cells assessed as accumulation at sub-G1 phase after 24 to 72 hrs by propidium iodide staining based flow cytometry; format: functional
[34] = target: Glycogen synthase kinase-3 beta (Homo sapiens) (UniProt P49841); test: Inhibition of GSK3beta phosphorylation at Ser9 in human Hep3B cells assessed as ratio of phosphorylated GSK3beta to beta-actin level at 10 uM after 48 hrs by Western blot analysis; format: cell-based
[35] = system: Hep 3B2; test: Up regulation of ARFIP2 expression in human Hep3B cells at 1 uM after 6 to 24 hrs by L1000 expression profiling method relative to control; format: functional
[36] = system: Hep 3B2; test: Cytotoxicity against human Hep3B cells after 48 hrs by MTT assay; format: functional, cell-based

Glycogen synthase kinase-3 beta (Homo sapiens), sequence (P49841 whole entry, looked up): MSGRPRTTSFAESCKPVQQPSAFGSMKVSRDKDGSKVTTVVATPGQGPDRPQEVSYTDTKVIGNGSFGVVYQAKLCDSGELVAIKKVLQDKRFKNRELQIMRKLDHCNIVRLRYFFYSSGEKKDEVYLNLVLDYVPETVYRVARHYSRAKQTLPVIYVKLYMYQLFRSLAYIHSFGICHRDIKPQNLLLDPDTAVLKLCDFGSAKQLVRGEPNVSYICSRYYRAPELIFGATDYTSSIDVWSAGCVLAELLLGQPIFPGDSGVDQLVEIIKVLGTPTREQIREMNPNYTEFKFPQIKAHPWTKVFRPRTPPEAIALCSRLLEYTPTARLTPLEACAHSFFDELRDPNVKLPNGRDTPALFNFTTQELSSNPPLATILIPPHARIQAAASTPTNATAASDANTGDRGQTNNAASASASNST

SMILES	Activity [1] [%]	Activity [2] [%]	Activity [4] [%]	Activity [5]	Activity [7] [%]	Activity [8] [%]	Activity [10] [%]	Activity [11] [%]	Activity [12] [%]	Activity [13] [%]	Activity [14] [%]	Activity [17] [%]	inhibition at 24 h, 50 µM [19] [%]	inhibition at 24 h, 12.5 µM [20] [%]	Activity [21]	inhibition of growth at 10 µM [30] [%]	Activity [33]	pIC50 [36]	other results
COc1ccc(CNC(=O)Nc2ncc([N+](=O)[O-])s2)cc1	23.4	42.4	21.5	Dose-dependent effect	25.7	24.6	13.2	3.6	34.3	23.2	34.1	19.5	–	–	–	–	–	–	Activity [3]: 7.7%; Activity [6]: 37.6%; Ratio [9]: 2.6; Activity [15]: 32.5%; Activity [16]: 42.8%; Activity [18]: 21.1%
O=C1COc2ccccc2N1Cc1cn(CCC2OCCO2)nn1	–	–	–	–	–	–	49.4	57.2	–	–	–	–	21.5	15.2	Tde	18	Dose-dependent effect	4.77	log2FC [22]: -3.2524; log2FC [23]: -3.1647; Ratio [24]: 10.5; Activity [25]: 13.9%; log2FC [26]: -4.4808; Activity [27]: 21.6%; Activity [28]: 44.8%; log2FC [29]: -3.5324; log2FC [31]: -4.419; Activity [32]: 11.6%; Ratio [34]: 0.7; log2FC [35]: 3.4502
CNC(=O)c1cc(Oc2ccc(NC(=O)Nc3ccc(Cl)c(C(F)(F)F)c3)cc2)ccn1 [SORAFENIB]	12.3	47.8	7.9	Dose-dependent effect	21.9	13.1	–	–	53.6	8.8	22.7	6.2	60	37.4	Tde	8.6	Dose-dependent effect	4.95	–
